Measured values as given in EP4752152A1, “STEROID COMPOUND, AND PREPARATION METHOD THEREFOR AND USE THEREOF” (Cholesgen (Shanghai) Co.Ltd., priority 2023, dated 2025).
Converted amounts (≈) assume the structure as drawn. Like-named read-outs stand apart in the source and are kept apart here.

Legend:
SREBP pathway = assay: SREBP luciferase reporter gene system (SRE-luciferase assay); assay type: cell-based, human; details: Huh-7/SRE-luc cells, sterol-deficient medium, 0.01-10 µM
Procedure, shortened: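 Readout was SRE-driven luciferase normalised to GFP fluorescence in lysates of stably transfected Huh-7/SRE-luc hepatoma cells. Compounds (0.01, 0.03, 0.1, 0.3, 1.0, 3.0, 10 µM; DMSO control) were applied for 16 h in sterol-depleted medium with 2 µM lovastatin and 10 µM mevalonate; IC50 from variable-slope fit.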

[1] = Solubility in fasted-state simulated intestinal fluid (FaSSIF); assay type: physicochemical; details: FaSSIF pH 6.5, 300 µM sample solution, room temperature
Method: Compound powder was dissolved in DMSO to prepare a 10.0 mM stock solution for later use. 0.021 g NaOH, 0.198 g NaH2PO4, and 0.309 g NaCl were weighed and added to 50.0 mL of ultrapure water. After thorough mixing, the pH was adjusted to 6.5 using HCl or NaOH. Then, 0.112 g of FaSSIF powder was added. After complete dissolution, the solution was allowed to stand at room temperature for 2 hours for later use. A certain volume of the compound stock solution was added to a certain volume of FaSSIF to prepare a 300 µM sample solution, which was mixed at room temperature under 1000 rpm for 1 hour. After 1 hour, the sample was centrifuged, and a certain volume of supernatant was taken. The termination solution was added to precipitate the sample, which was then thoroughly mixed and centrifuged for 20 minutes. The supernatant was then taken again, diluted with dilution solution, and then analyzed by liquid chromatography-tandem mass spectrometry (LC-MS/MS). The concentration of the test compound in the samples was quantitatively determined using LC-MS/MS. Table 3: FaSSIF solubility results of compounds from some examples

[2] = tested on: Fatty Acid Synthase (FASN) gene; assay: Inhibition of FASN gene expression (qPCR) in Huh-7 cells; assay type: cell-based, human; details: read-out: FASN IC50
Procedure, shortened: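 IC50 derived by four-parameter fit of FASN expression inhibition versus DMSO, measured by RT-qPCR. Compound exposure lasted 16 h at five 3-fold concentrations from 3000 nM, applied to Huh-7 cells in sterol-depleting medium with 5% LPDS, 2 µM lovastatin and 10 µM mevalonate.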

[3] = FaSSIF, pH 6.5, fassif, kinetic from dmso stock
[4] = Homo sapiens, Huh-7, 16 h, Huh-7 cells, starvation medium, 16 hours, qPCR, class symbols

## COc1cccc(F)c1C(O)CC[C@@H](C)[C@H]1CC[C@H]2[C@H]3[C@H](CC[C@]12C)[C@@]1(C)CC[C@H](O)[C@H](O)[C@@H]1CC3(F)F (stereo partly drawn) [Compound 333, (1R,3aS,3bS,5aR,6R,7S,9aR,9bS,11aR)-4,4-difluoro-1-[(2R)-5-(2-fluoro-6-methoxyphenyl)-5-hydroxypentan-2-yl]-9a,11a-dimethylhexadecahydro-1H-cyclopenta[1,2-a]phenanthrene-6,7-diol]
SREBP pathway; Homo sapiens, Huh-7, 16 h
  IC50: 0.118 µM
[1]; [3]
  solubility at 1 h: 148 µM (≈ 79.7 µg/mL)
[2]; [4]
  IC50: 200 to 500 nM

## COc1nc(F)ccc1C(O)CCC[C@@H](C)[C@H]1CC[C@H]2[C@H]3[C@H](CC[C@]12C)[C@@]1(C)CC[C@H](O)[C@H](O)[C@@H]1CC3(F)F (single isomer, unassigned) [Compound 189, (1R,3aS,3bS,5aR,6R,7S,9aR,9bS,11aR)-4,4-difluoro-1-[(2R,6R)-6-(6-fluoro-2-methoxypyridin-3-yl)-6-hydroxyhexan-2-yl]-9a,11a-dimethylhexadecahydro-1H-cyclopenta[1,2-a]phenanthrene-6,7-diol or (1R,3aS,3bS,5aR,6R,7S,9aR,9bS,11aR)-4,4-difluoro-1-[(2R,6S)-6-(6-fluoro-2-methoxypyridin-3-yl)-6-hydroxyhexan-2-yl]-9a,11a-dimethylhexadecahydro-1H-cyclopenta[1,2-a]phenanthrene-6,7-diol]
SREBP pathway; 16 hours
  IC50: 0.0231 µM
[1]; 60 min
  solubility at 1 h: 157.08 µM (≈ 87 µg/mL)
[2]; Huh-7 cells, starvation medium, 16 hours, qPCR, class symbols
  IC50: < 200 nM

## C[C@H](CCCC(O)c1ccc2c(n1)OC(F)(F)O2)[C@H]1CC[C@H]2[C@H]3[C@H](CC[C@]12C)[C@@]1(C)CC[C@H](O)[C@H](O)[C@@H]1CC3(F)F (single isomer, unassigned) [Compound 265]
SREBP pathway; 16 hours
  IC50: 0.006 µM
[1]; [3]
  solubility at 1 h: 107 µM (≈ 62.9 µg/mL)
[2]; Homo sapiens, Huh-7, 16 h
  IC50: < 200 nM

## CCOc1nc(F)ccc1[C@H](O)CCC[C@@H](C)[C@H]1CC[C@H]2[C@H]3[C@H](CC[C@]12C)[C@@]1(C)CC[C@H](O)[C@H](O)[C@@H]1CC3(F)F (single isomer, unassigned) [Compound 283]
SREBP pathway; Homo sapiens, Huh-7, 16 h
  IC50: 0.027 µM
[1]; [3]
  solubility at 1 h: 288 µM (≈ 163 µg/mL)
[2]; [4]
  IC50: < 200 nM

## C[C@H](CCCC(O)c1cccc2ncn(C)c12)[C@H]1CC[C@H]2[C@H]3[C@H](CC[C@]12C)[C@@]1(C)CC[C@H](O)[C@H](O)[C@@H]1CC3(F)F (single isomer, unassigned) [Compound 298, (1R,3aS,3bS,5aR,6R,7S,9aR,9bS,11aR)-4,4-difluoro-1-[(2R,6S)-6-hydroxy-6-(3-methylbenzo[d]imidazol-4-yl)hexan-2-yl]-9a,11a-dimethylhexadecahydro-1H-cyclopenta[1,2-a]phenanthrene-6,7-diol or (1R,3aS,3bS,5aR,6R,7S,9aR,9bS,11aR)-4,4-difluoro-1-[(2R,6R)-6-hydroxy-6-(3-methylbenzo[d]imidazol-4-yl)hexan-2-yl]-9a,11a-dimethylhexadecahydro-1H-cyclopenta[1,2-a]phenanthrene-6,7-diol]
SREBP pathway; 16 hours
  IC50: 0.093 µM
[1]; [3]
  solubility at 1 h: 18.2 µM (≈ 10.2 µg/mL)

## C[C@H](CCCC(O)c1ccccc1F)[C@H]1CC[C@H]2[C@H]3[C@H](CC[C@]12C)[C@@]1(C)CC[C@H](O)[C@H](O)[C@@H]1CC3(F)F (stereo partly drawn) [Compound 3, (1R,3aS,3bS,5aR,6R,7S,9aR,9bS,11aR)-4,4-difluoro-1-[(2R)-6-(2-fluorophenyl)-6-hydroxyhexan-2-yl]-9a,11a-dimethylhexadecahydro-1H-cyclopenta[1,2-a]phenanthrene-6,7-diol]
SREBP pathway; Homo sapiens, Huh-7, 16 h
  IC50: 0.03 µM
[1]; [3]
  solubility at 1 h: 247 µM (≈ 129 µg/mL)

## C[C@H](CCCC(O)c1cccc2cn[nH]c12)[C@H]1CC[C@H]2[C@H]3[C@H](CC[C@]12C)[C@@]1(C)CC[C@H](O)[C@H](O)[C@@H]1CC3(F)F (stereo partly drawn) [Compound 224, (1R,3aS,3bS,5aR,6R,7 S,9aR,9bS,11aR)-4,4-Difluoro-1-[(2R)-6-hydroxy-6-(1H-indazol-7-yl)hexan-2-yl]-9a,11a-dimethylhexadecahydro-1H-cyclopenta[1,2-a]phenanthrene-6,7-diol]
SREBP pathway; Homo sapiens, Huh-7, 16 h
  IC50: 0.055 µM
[1]; [3]
  solubility at 1 h: 48 µM (≈ 26.1 µg/mL)

## C[C@H](CCCC(O)c1c(F)cc(F)nc1F)[C@H]1CC[C@H]2[C@H]3[C@H](CC[C@]12C)[C@@]1(C)CC[C@H](O)[C@H](O)[C@@H]1CC3(F)F (stereo partly drawn) [Compound 165, (1R,3aS,3bS,5aR,6R,7S,9aR,9bS,11aR)-4,4-difluoro-1-[(2R)-6-hydroxy-6-(2,4,6-trifluoropyridin-3-yl)hexan-2-yl]-9a,11a-dimethylhexadecahydro-1H-cyclopenta[1,2-a]phenanthrene-6,7-diol]
SREBP pathway; Homo sapiens, Huh-7, 16 h
  IC50: 0.099 µM
[1]; [3]
  solubility at 1 h: 87.4 µM (≈ 48.9 µg/mL)

## C[C@H](CCCC(O)c1cccc2c1cnn2C)[C@H]1CC[C@H]2[C@H]3[C@H](CC[C@]12C)[C@@]1(C)CC[C@H](O)[C@H](O)[C@@H]1CC3(F)F (single isomer, unassigned) [Compound 249, (1R,3aS,3bS,5aR,6R,7S,9aR,9bS,11aR)-4,4-difluoro-1-[(2R,6S)-6-hydroxy-6-(1-methylindazol-4-yl)hexan-2-yl]-9a,11a-dimethylhexadecahydro-1H-cyclopenta[1,2-a]phenanthrene-6,7-diol or (1R,3aS,3bS,5aR,6R,7S,9aR,9bS,11aR)-4,4-difluoro-1-[(2R,6R)-6-hydroxy-6-(1-methylindazol-4-yl)hexan-2-yl]-9a,11a-dimethylhexadecahydro-1H-cyclopenta[1,2-a]phenanthrene-6,7-diol]
SREBP pathway; Homo sapiens, Huh-7, 16 h
  IC50: 0.058 µM
[1]; [3]
  solubility at 1 h: 38.6 µM (≈ 21.6 µg/mL)

## COc1nc(F)cnc1C(O)CCC[C@@H](C)[C@H]1CC[C@H]2[C@H]3[C@H](CC[C@]12C)[C@@]1(C)CC[C@H](O)[C@H](O)[C@@H]1CC3(F)F (stereo partly drawn) [Compound 175, (1R,3aS,3bS,5aR,6R,7S,9aR,9bS,11aR)-4,4-difluoro-1-[(2R)-6-(5-fluoro-3-methoxypyrazin-2-yl)-6-hydroxyhexan-2-yl]-9a,11a-dimethylhexadecahydro-1H-cyclopenta[1,2-a]phenanthrene-6,7-diol]
SREBP pathway; Homo sapiens, Huh-7, 16 h
  IC50: 0.285 µM
[1]; [3]
  solubility at 1 h: 280 µM (≈ 155 µg/mL)

## C[C@H](CCCC(O)c1ccc(F)nc1OC1CC1)[C@H]1CC[C@H]2[C@H]3[C@H](CC[C@]12C)[C@@]1(C)CC[C@H](O)[C@H](O)[C@@H]1CC3(F)F (stereo partly drawn) [Compound 328, (1R,3aS,3bS,5aR,6R,7S,9aR,9bS,11aR)-1-[(2R)-6-[2-(cyclopropyloxy)-6-fluoropyridin-3-yl]-6-hydroxyhexan-2-yl]-4,4-difluoro-9a,11a-dimethylhexadecahydro-1H-cyclopenta[1,2-a]phenanthrene-6,7-diol]
SREBP pathway; Homo sapiens, Huh-7, 16 h
  IC50: 0.043 µM
[1]; [3]
  solubility at 1 h: 263 µM (≈ 152 µg/mL)

## C[C@H](CCCC(O)c1cccc2c1cnn2C)[C@H]1CC[C@H]2[C@H]3[C@H](CC[C@]12C)[C@@]1(C)CC[C@H](O)[C@H](O)[C@@H]1CC3(F)F (single isomer, unassigned) [Compound 250, (1R,3aS,3bS,5aR,6R,7S,9aR,9bS,11aR)-4,4-difluoro-1-[(2R,6R)-6-hydroxy-6-(1-methylindazol-4-yl)hexan-2-yl]-9a,11a-dimethylhexadecahydro-1H-cyclopenta[1,2-a]phenanthrene-6,7-diol or (1R,3aS,3bS,5aR,6R,7S,9aR,9bS,11aR)-4,4-difluoro-1-[(2R,6S)-6-hydroxy-6-(1-methylindazol-4-yl)hexan-2-yl]-9a,11a-dimethylhexadecahydro-1H-cyclopenta[1,2-a]phenanthrene-6,7-diol]
SREBP pathway; 16 hours
  IC50: 0.066 µM
[1]; 60 min
  solubility at 1 h: 32.95 µM (≈ 18.4 µg/mL)

## COc1cc(F)c(C(O)CCC[C@@H](C)[C@H]2CC[C@H]3[C@H]4[C@H](CC[C@]23C)[C@@]2(C)CC[C@H](O)[C@H](O)[C@@H]2CC4(F)F)c(F)c1 (some centres unmarked) [Compound 197]
SREBP pathway; Homo sapiens, Huh-7, 16 h
  IC50: 0.073 µM
[1]; [3]
  solubility at 1 h: 328 µM (≈ 187 µg/mL)

## C[C@H](CCCC(O)c1nccc2c1OC(F)(F)O2)[C@H]1CC[C@H]2[C@H]3[C@H](CC[C@]12C)[C@@]1(C)CC[C@H](O)[C@H](O)[C@@H]1CC3(F)F (stereo partly drawn) [Compound 296, (1R,3aS,3bS,5aR,6R,7 S,9aR,9bS,11aR)-1-[(2R)-6-(2,2-Difluoro[1,3]dioxolo[4,5-c]pyridin-4-yl)-6-hydroxyhexan-2-yl]-4,4-difluoro-9a,11a-dimethylhexadecahydro-1H-cyclopenta[1,2-a]phenanthrene-6,7-diol]
SREBP pathway; Homo sapiens, Huh-7, 16 h
  IC50: 0.226 µM
[1]; [3]
  solubility at 1 h: 69.3 µM (≈ 40.6 µg/mL)
